Where two headings read alike, the source gives them in different places.
Experiments:
[1] = tested on: bone-marrow-derived DCs; test: MTS viability assay, DCs (Example 2); assay type: cell-based, BALB/c mice; details: 24 h; 1.125 μg/mL Dox; FIG. 8B
Experimental: To generate murine bone-marrow-derived DCs, bone marrow cells were flushed from tibias and femurs of BALB/c mice, and mononuclear cells isolated using Ficoll gradient separation (Fico/Lite-LM, Atlanta Biologicals, Flowery Branch, Ga.). Cells were cultured in medium supplemented with 20 ng/mL each GM-CSF and IL4 (PeproTech, Rocky Hill, N.J.) for 7 days. Non-adherent cells were harvested. Cells were >70% DCs as determined by CD11c staining.
(§1) The MTS assay for viability was used to determine the cytotoxic activity of Dox MPs against A20 and DCs (Promega, Madison, Wis.). Briefly, 5×10^3 A20 cells or DCs were incubated with Dox MPs (8 μg/mg) for 24, 48 or 72 h (4 wells per group) at a range of Dox concentrations. Blank MPs were used as negative controls. MTS was added for 4 h at 37° C. Following centrifugation, 90 μl of supernatant was removed. Absorbance was read at 490 nm using a Thermomax Microplate Reader (Molecular Devices, Sunnyvale, Calif.).

[2] = tested on: A20 cells phagocytosed by DCs; test: Phagocytosis assay of A20 by DCs; assay type: cell-based, murine; details: A20 treated 48 h, co-incubated with DCs 1:1 for 2 h
Experimental: A20 phagocytosis was quantified using A20 cells labeled with CellTrace Violet (Invitrogen, Carlsbad, Calif.). Labeled A20 were left untreated or treated with Dox MPs for 48 h (3 wells per group) at various concentrations. Controls included soluble Dox (at the same concentrations) and blank MPs (at equivalent weights). Treated A20 were washed and co-incubated with DCs at a 1:1 ratio for 2 h, stained with anti-CD11c-APC-Cy7 (BD), and analyzed by flow cytometry. The percentage of double-positive cells (CD11c and CellTrace Violet) was determined.

[3] = lymphoma patients; 30 mg/m^2 Dox; cited from earlier work
[4] = tested on: A20 cells; test: MTS viability assay, A20 (Example 2); assay type: cell-based, murine
Experimental: as §1

[5] = tested on: A20 cells; test: MTS viability assay, A20 (Example 1); assay type: cell-based, murine; details: Mus musculus, 4.5 μg/mL Dox, MPs 4:1 loading, read-out: viable A20
Experimental: The A20 cell line (a BALB/c B cell lymphoma) and the EL4 cell line (a C57BL/6 T cell lymphoma) were purchased from ATCC (Manassas, Va.). Tumor cells were cultured in RPMI-1640 medium (Gibco, Carlsbad, Calif.) supplemented with 10% heat-inactivated FCS (HyClone, Logan, Utah), 100 U/mL penicillin, 100 μg/mL streptomycin, and 50 μM 2-ME (All from Gibco), as complete medium.
To determine the cytotoxic activity of MPs against A20 and EL4, the 3-(4,5 dimethylthiazol-2-yl)-5-(3-carboxymethoxyphenyl-2-(4-sulfophenyl)-2H-tetrazolium (MTS) assay for viability was conducted using CellTiter 96® AQueous Non-Radioactive Cell Proliferation Assay (Promega, Madison, Wis.). Five thousand A20 and EL4 cells were separately incubated with soluble Dox or Dox/CpG MPs (4:1 loading) in 96-well plates for 24, 48, and 72 h (four wells per group) at a final Dox concentration of 4.5 μg/mL. Media or blank MPs at equivalent weights were used as negative controls. The MTS/PMS reagent was then added for 4 h at 37° C. […] Absorbance was read at 490 nm using Thermomax Microplate Reader (Molecular Devices, Sunnyvale, Calif.). […] Viability was assessed as before.
Percent survival was expressed as the ratio of absorbance of treated cells relative to that of untreated cells in media group (after subtracting the absorbance of the blank from each) multiplied by 100. […]

Question: Which results are given for `COc1cccc2c1C(=O)c1c(O)c3c(c(O)c1C2=O)C[C@@](O)(C(=O)CO)C[C@@H]3O[C@H]1C[C@H](N)[C@H](O)[C@H](C)O1` [soluble Dox, Doxorubicin]?
Answer: survival of DCs [1]: 19%; phagocytosis of A20 tumor cells by DCs [2]: enhanced phagocytosis of A20 cells; peak plasma concentration [3]: 278 ng/mL; survival of A20 ([4]; 24 h, 1.125 μg/mL Dox, FIG. 8B comparison with DCs): 26%; viability at 0.5625 µg/mL ([4]; Mus musculus, A20, Day 1 (24 h), 0.5625 μg/mL Dox, FIG. 8A): 87%; viability at 1.125 µg/mL ([4]; Mus musculus, A20, Day 1 (24 h), 1.125 μg/mL Dox, FIG. 8A): 46%; viability at 1.125 µg/mL ([4]; Mus musculus, A20, Day 2 (48 h), 1.125 μg/mL Dox): 5%; viability at 4.5 µg/mL ([5]; A20, 24 h, day 1): 26%; viability at 4.5 µg/mL ([5]; A20, 48 h, day 2): 4%
